According to ChEMBL document CHEMBL1138072, “Critical modifications of the ISO-1 scaffold improve its potent inhibition of macrophage migration inhibitory factor (MIF) tautomerase activity” (Bioorg Med Chem Lett, 2006):

Target: T1, Macrophage migration inhibitory factor (Homo sapiens, UniProt P14174)
T1 sequence (P14174 whole entry): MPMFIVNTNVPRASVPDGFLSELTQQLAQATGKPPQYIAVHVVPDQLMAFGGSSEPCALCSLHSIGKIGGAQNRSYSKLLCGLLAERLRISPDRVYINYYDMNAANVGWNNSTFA
Assay: Inhibition of MIF tautomerase activity

IC50 | SMILES
26 µM | COc1ccc(NC(=O)CC2CC(c3ccc(O)cc3)=NO2)cc1 (stereo unspecified)
24 µM | O=C(CC1CC(c2ccc(O)cc2)=NO1)NC1CCCCC1 (stereo unspecified)
5 µM | O=C(CC1CC(c2ccc(O)cc2)=NO1)OCC1CCCCC1 (stereo unspecified)
6.5 µM | COC(=O)CC1CC(c2ccc(O)c(F)c2)=NO1 (stereo unspecified)
2.5 µM | O=C(CC1CC(c2ccc(O)cc2)=NO1)OC1CCCCC1 (stereo unspecified)
3 µM | CCCCOC(=O)CC1CC(c2ccc(O)cc2)=NO1 (stereo unspecified)
6 µM | CC(C)OC(=O)CC1CC(c2ccc(O)cc2)=NO1 (stereo unspecified)
8.5 µM | COc1ccc(OC(=O)CC2CC(c3ccc(O)cc3)=NO2)cc1 (stereo unspecified)
8.5 µM | CC(C)(C)OC(=O)NCCCCNC(=O)CC1CC(c2ccc(O)cc2)=NO1 (stereo unspecified)
10 µM | CC(C)(C)c1ccc(OC(=O)CC2CC(c3ccc(O)cc3)=NO2)cc1 (stereo unspecified)
1.5 µM | CC(C)(C)COC(=O)CC1CC(c2ccc(O)cc2)=NO1 (stereo unspecified)
> 100 µM | NCCCCNC(=O)CC1CC(c2ccc(O)cc2)=NO1 (stereo unspecified)
20 µM | Cc1cc(C)c(OC(=O)CC2CC(c3ccc(O)cc3)=NO2)c(C)c1 (stereo unspecified)
12 µM | CCOC(=O)CC1CC(c2ccc(O)cc2)=NO1 (stereo unspecified)
10 µM | O=C(CC1CC(c2ccc(O)cc2)=NO1)Oc1ccccc1 (stereo unspecified)
4 µM | CCCOC(=O)CC1CC(c2ccc(O)cc2)=NO1 (stereo unspecified)
